Laboratory results reported in patent US12691101B2, “Compound and method for preventing or treating of respiratory diseases comprising the same as an active ingredient” (YONSEI UNIVERSITY, UNIVERSITY - INDUSTRY FOUNDATION (UIF), priority 2019, dated 2026).

Experiments:
human 5-HT2A = biological target: T1, human 5-HT2A (Homo sapiens, UniProt P28223); test: 5-HT2A activity in FRT cells; assay type: cell-based; details: pretreated 10 minutes
T1 construct: expressed in transfected cells; host or cells: FRT cells co-expressing ANO1(abc) and YFP-F46L/H148Q/I152L
Procedure: (A) The inhibition of mouse pendrin (mPDS)-mediated Cl^−/I^− exchange activity by F56 was measured in CHO-K1 cells (mean±S.E., n=5). The indicated concentration of F56 was pretreated for 10 minutes. (B) Summary of dose-response for inhibition of the human pendrin (hPDS)-mediated (closed circle, FIG. (a), C) and mPDS-mediated (open circle) Cl^−/I^− exchange activity. (C-F) Representative traces of intracellular pH in CHO-K1 cells expressing SLC26A3, SLC26A6, SLC26A7 and SLC26A9 were shown. The application of Cl^− free solution induced intracellular alkalization by Cl^−/HCO3^− exchange. The indicated concentration of F56 was pretreated for 10 minutes. (G) the effect of F56 (100 μM) on the CFTR chloride channel activity was measured in FRT cells expressing human CFTR. The CFTR current was activated by 20 μM forskolin and was inhibited by 10 μM CFTRinh-172. (H) The effect of F56 (100 μM) on the AN01 chloride channel activity was measured in FRT cells expressing human AN01. Before 10 minutes prior to AN01 activation by 100 μM ATP, F56 was added. (Right) Peak current summary (mean±S.E., n=3). (I) The effect of F56 on the hERG (Kv11.1) potassium channel activity was measured in HEK293T cells expressing human Kv11.1 (mean±S.E., n=4). […] (J) The effect of F56 on the 5-HT2A channel activity was measured in FRT cells expressing human 5-HT2A (mean±S.E., n=4). […]

Duox1 and Duox2 mRNA = test: Real-time PCR of Duox1 and Duox2 mRNA in IL-4-treated HNE cells; assay type: cell-based, human
Procedure: The total messenger RNA (mRNA) was extracted using TRIzol reagent (Invitrogen, Carlsbad, CA, USA), and was reverse-transcribed using a random hexamer primer, an oligo(dT) primer and SuperScript® III reverse transcriptase (Invitrogen). Quantitative real-time PCR was performed using StepOnePlus Real-Time PCR system (Applied Biosystems, Foster City, CA, USA) and Thunderbird SYBR qPCR mix (Tokyobo, Osaka, Japan). Thermal cycling conditions included the initial stage at 95° C. for 5 minutes, and subsequent 40 cycles at 95° C. for 10 seconds, at 55° C. for 20 seconds and at 72° C. for […].

Q: How did the “effect on 5-HT2A activity” value (human 5-HT2A) turn out when `CC(C)(C)c1ccc(C2=NC(=Cc3cccs3)C(=O)O2)cc1` [F56, 2-(4-(tert-butyl)phenyl)-4-(thiophen-2-ylmethylene)oxazol-5(4H)-one] was run?
A: not affected

Q: And the “mRNA expression of Duox1 or Duox2” value (Duox1 and Duox2 mRNA)?
A: did not affect
